Like-named read-outs stand apart in the source and are kept apart here. Where only a bound is given, the exact number is not on record here.

The source of these data is patent US20260042754A1, “Substituted Bicyclic Heteroaryl Sulfonamide Derivatives for the Treatment of Cancer” (NODUS ONCOLOGY LIMITED, priority 2022, published 2026).

In assay [1] the target is Recombinant His-tagged human PARG protein (Homo sapiens (Human), UniProt Q86W56). In words: PARG enzymatic assay (TFMU-ADPr fluorescence). It is filed as biochemical. As to conditions: 1 nM enzyme, 200 μM TFMU-ADPr, read after 30 minutes. The essentials:
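Sf21-expressed His-tagged human PARG (1 nM) preincubated 15 min with compound (8-point series, 0.5% DMSO) in pH 7.4 phosphate/KCl/β-mercaptoethanol buffer, then 200 μM TFMU-ADPr added. Fluorescence (ex 380/em 535 nm) read after 30 min; IC50 from 4-parameter logistic fit, no-enzyme control as bottom.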

For another assay, the system named is NCI-H1650. Briefly: Modified cell proliferation assay (CellTiter-Glo), NCI-H1650. It is filed as cell-based. Conditions: modified protocol, 384-well, 300 cells per well, 120 h, highest concentration tested 30000 nM, read-out: NCI-H1650 GI50 (high PARG dependency). The method, boiled down: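 NCI-H1650 or RMUG-S cells seeded at 300 cells/well in RPMI1640 with 10% FCS, compounds added after 24 h, then 120 h at 37 °C/5% CO2. Viability read by CellTiter-Glo luminescence; IC50 from fitted dose-response inflection point. Z′≥0.5 required.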
On the technique in general: ATP-based viability assays read luminescence as a measure of living cells.

Sequence of Recombinant His-tagged human PARG protein (Q86W56 whole entry): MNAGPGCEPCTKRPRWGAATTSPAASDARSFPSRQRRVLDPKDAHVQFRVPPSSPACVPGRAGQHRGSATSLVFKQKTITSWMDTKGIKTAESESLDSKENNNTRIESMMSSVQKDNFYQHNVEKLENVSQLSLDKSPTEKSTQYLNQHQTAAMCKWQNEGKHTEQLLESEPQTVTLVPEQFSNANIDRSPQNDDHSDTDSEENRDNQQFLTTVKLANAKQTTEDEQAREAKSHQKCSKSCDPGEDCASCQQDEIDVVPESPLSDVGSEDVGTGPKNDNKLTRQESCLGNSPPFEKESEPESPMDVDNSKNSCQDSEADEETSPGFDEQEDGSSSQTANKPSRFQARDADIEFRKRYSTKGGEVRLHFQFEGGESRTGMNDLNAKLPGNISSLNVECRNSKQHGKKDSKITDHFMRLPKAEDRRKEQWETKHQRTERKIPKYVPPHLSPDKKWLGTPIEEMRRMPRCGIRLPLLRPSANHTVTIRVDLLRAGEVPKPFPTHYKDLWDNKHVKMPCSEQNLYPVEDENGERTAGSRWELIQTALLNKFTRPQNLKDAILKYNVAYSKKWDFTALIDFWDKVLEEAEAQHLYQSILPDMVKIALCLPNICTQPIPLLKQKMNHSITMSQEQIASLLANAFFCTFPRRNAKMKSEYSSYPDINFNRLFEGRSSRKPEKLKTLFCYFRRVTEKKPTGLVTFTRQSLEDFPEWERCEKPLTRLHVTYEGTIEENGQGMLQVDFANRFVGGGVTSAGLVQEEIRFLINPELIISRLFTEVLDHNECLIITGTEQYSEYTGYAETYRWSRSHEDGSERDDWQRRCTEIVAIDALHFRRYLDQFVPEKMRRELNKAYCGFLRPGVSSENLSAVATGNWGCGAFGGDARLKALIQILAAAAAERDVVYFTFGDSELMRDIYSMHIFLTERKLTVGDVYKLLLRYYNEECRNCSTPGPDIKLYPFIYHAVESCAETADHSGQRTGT

The term IC50 denotes the concentration that gives 50% inhibition. The term GI50 denotes the concentration that inhibits growth by half. As to `CO/N=c1\[nH]c2ccc(S(=O)(=O)NC3(C)CC3)cc2c(=O)n1Cc1cnc(C)s1` [Example 1, 2-methoxyimino-N-(1-methylcyclopropyl)-3-[(2-methylthiazol-5-yl)methyl]-4-oxo-1H-quinazoline-6-sulfonamide], the IC50 in assay [1] is less than 30 nM. Moreover, the 50% growth inhibitory concentration (GI50) in the assay with NCI-H1650 (Homo sapiens, NCI-H1650) fell in the range of 500 to 2000 nM.
On the same counts, the results for `CO/N=c1\[nH]c2ccc(S(=O)(=O)NC3(C)COC3)cc2c(=O)n1Cc1cnn(C)c1` [Example 2, 2-methoxyimino-N-(3-methyloxetan-3-yl)-3-[(1-methylpyrazol-4-yl)methyl]-4-oxo-1H-quinazoline-6-sulfonamide] are 30 to 99 nM and 500 to 2000 nM.
In the case of `Cc1nc(C)c(CO/N=c2\[nH]c3ccc(S(=O)(=O)NC4(C)CC4)cc3c(=O)n2Cc2cnn(C)c2)s1` [Example 3, 2-[(2,4-dimethylthiazol-5-yl)methoxyimino]-N-(1-methylcyclopropyl)-3-[(1-methylpyrazol-4-yl)methyl]-4-oxo-1H-quinazoline-6-sulfonamide], in assay [1], the IC50 is less than 30 nM. Moreover, the GI50 in the assay on NCI-H1650 (Homo sapiens, NCI-H1650) was more than 2000 nM.
On the same counts, the results for `CO/N=c1\[nH]c2c(-c3ccc(C(=O)N(C)C)cc3)cc(S(=O)(=O)NC3(C)CC3)cc2c(=O)n1Cc1cnn(C)c1` [Example 5, 4-[2-methoxyimino-6-[(1-methylcyclopropyl)sulfamoyl]-3-[(1-methylpyrazol-4-yl)methyl]-4-oxo-1H-quinazolin-8-yl]-N,N-dimethyl-benzamide] are less than 30 nM and more than 2000 nM.
Turning to `CO/N=c1\[nH]c2c(N3CCN[C@H](C)C3)cc(S(=O)(=O)NC3(C)CC3)cc2c(=O)n1Cc1cnn(C)c1` [Example 7, 2-methoxyimino-N-(1-methylcyclopropyl)-3-[(1-methylpyrazol-4-yl)methyl]-4-oxo-8-[(3R)-3-methylpiperazin-1-yl]-1H-quinazoline-6-sulfonamide], in assay [1], the IC50 was less than 30 nM. Moreover, the GI50 in the assay with NCI-H1650 (Homo sapiens, NCI-H1650) was less than 500 nM.
On to `CON=c1[nH]c2c(N3CCN(C(=O)C4(C)CC4)[C@H](C)C3)cc(S(=O)(=O)NC3(C)CC3)cc2c(=O)n1Cc1cnn(C)c1` [Example 8, 2-methoxyimino-N-(1-methylcyclopropyl)-3-[(1-methylpyrazol-4-yl)methyl]-4-oxo-8-[(3R)-3-methyl-4-(1-methylcyclopropanecarbonyl)piperazin-1-yl]-1H-quinazoline-6-sulfonamide], for which, in assay [1], the IC50 is less than 30 nM. In addition, in the assay on NCI-H1650, the GI50 is less than 500 nM.
